In patent publication US20150250824A1, “METHODS AND COMPOSITIONS FOR EXPANSION OF STEM CELLS AND OTHER CELLS” (The Research Foundation For The State University Of New York, priority 2014, published 2015):
Entries after “also recorded” stand apart in the source; their conditions may differ. Where a name gives a salt, the structure may show the parent alone. Read-outs that look alike come from different tables or passages of the source.

Experiments:
human CB CD34+ cells = assay: Ex vivo expansion of cord blood CD34+ cells in HSC media with small molecules; type: cell-based; conditions: for retention/expansion of CD34+CD38− stem/progenitor cells compared to control: 5 days, HSC media with SCF, TPO, Flt-3 ligand 100 ng/ml each, Z 100 nM, Bix 1 μM, T 10 μM
Method: (§1) CD34+ cells were cultured in […] medium ([…] Technologies, Vancouver, BC, Canada) supplemented with 10% FBS, 100 ng/ml hSCF (human stem cell factor), 100 ng/ml hTPO (human thrombopoietin), 100 ng/ml hFLT-3 ligand (Human Fms-related Tyrosine Kinase 3) (Peprotech, Rocky Hill, N.J., USA) and 100 U/ml penicillin/streptomycin (Gibco). Human cortex Neural Progenitor Cell line (hcx NSC) was maintained in ReNcell medium: ReNcell NSC Maintenance medium (Millipore) supplemented with 20 ng/ml human EGF, 20 ng/ml human bFGF (Peprotech) and 100 U/ml penicillin/streptomycin. For expansion of cells targeted for cell sorting, we used the same media containing a different cytokine cocktail of 100 ng/ml SCF, TPO and 10 ng/ml IL-3.
Cells were centrifuged for 5 minutes at 200 G at 4° C. Cells were resuspended with CD34, 38 and/or 41 conjugated antibodies for 30 minutes on ice. Cells were then washed with 2 ml of PBS and centrifuged for 5 minutes at 200 G at 4° C. The final pellet was resuspended using 300 μl of 2% formalin. […]
Recent studies in iPS cell reprogramming have discovered numerous small molecules modulating iPS cell reprogramming through different cellular mechanisms. These could include cellular signaling pathways (such as Wnt signaling and TGF beta) and epigenetic mechanisms, such as DNA methyltransferases, histone methylation and histone deacetylation. We have screened small molecule modulators involving these cellular mechanisms for hematopoietic stem/progenitor cell expansion. […] CB CD34+ cells were cultured for 5 days in HSC media containing SCF, TPO, and Flt-3 ligand at 100 ng/ml each. […] Bix (BIX01294), trihydrochloride hydrate is a histone methyltransferase (HMTase) G9a inhibitor (FIG. 15).
Previously we have shown that stem cell protein is a robust stimulator for hematopoietic stem/progenitor cell expansion via recruitment of various epigenetic factors such as histone deacylases and DNA methyltransferases (Yang et al, J Biol Chem. 2012, 13; 287(3): 1996-2005). […] Based on this finding, we screened the LSD1 inhibitors for the expansion of hematopoietic precursor cells. hUCB CD34+ cells were cultured for 5 days in HSC media containing SCF, TPO, and Flt-3 ligand at 100 ng/ml each.

[1] = test system: hematopoietic stem/progenitor cells; assay: Dose determination of BIX, Z and UNC on expansion of hematopoietic stem/progenitor cells; type: cell-based; conditions: at concentrations of 0.25×
Description: The inventors have also determined the dose for BIX, Z and UNC on the expansion of hematopoietic stem/progenitor cells. […] UNC (UNC0638) and BIX are quite similar in their impact of expansion of hematopoietic stem/progenitor cells.

[2] = test system: CD34+ cells isolated from peripheral blood of G-CSF-mobilized donors; assay: Ex vivo culture of mobilized peripheral blood CD34+ cells with compounds, CD34/CD38 flow cytometry; type: cell-based, human; conditions: 11 days, minimal cytokines; for effect on CD34+CD38+ and CD34+CD38− populations: C, 6, F at 10 μM, Z at 100 nM
Method: CD34+ cells were isolated from cord blood or from peripheral blood of G-CSF-mobilized adult donors and cultured as follows. Mononuclear cells (MNCs) were isolated using a simple red blood cell lysis (15 minutes at room temperature using BD PharmLyse) or using Ficoll-Paque density gradient centrifugation (Jaatinen and Laine, Current Protocols Stem Cell Biol. 1:2A.1.1-2A.1.4. (2007)). The cells were then incubated with MACS CD34+ Microbead kit (Miltenyi Biotec, Auburn, Calif.) and run through a magnetic column resulting in selection for CD34+ cells. […] Human cortex neural stem cell (hcx NSC) cells were purchased from Millipore.
as §1
Cells were centrifuged for 5 minutes at 200 G at 4° C. Cells were resuspended with CD34, 38 and/or 41 conjugated antibodies for 30 minutes on ice. Cells were then washed with 2 ml of PBS and centrifuged for 5 minutes at 200 G at 4° C. The final pellet was resuspended using 300 μl of 2% formalin.
CD34+ cells isolated from peripheral blood of G-CSF-mobilized donors were cultured for 11 days with minimal cytokines and the 4 chemical cocktail (C6FZ). […] The population bearing CD34+/CD38− is associated with long-term repopulating HSCs.
CD34+ cells isolated from the peripheral blood of G-CSF-mobilized donors were next cultured for 11 days with minimal cytokines and the individual compounds, C, 6, F and Z (FIG. 13).

[3] = test system: CD34+ cells isolated from human umbilical CB; type: cell-based; conditions: for number of large megakaryocytes / shortening of maturation compared to control: 4-5 day culture; for ploidy development compared to control or 616452 alone: 4 and 8 days induction; for CD41 population compared to control: 4 days of culture, flow analysis
Method: Megakaryocytes derived from CB in vitro are usually smaller than megakaryocytes derived from bone marrow or mobilized peripheral blood from adults. Small megakaryocyte size may contribute to delayed platelet engraftment when cord blood is used for bone marrow transplantation. To test whether 616452 is able to increase fetal/neonatal megakaryocyte size and ploidy, CD34+ cells isolated from human umbilical CB were cultured in StemSpan SFEM containing SCF, TPO and Flt-3 Ligand. CB CD34+ cells in the presence of TPO after 4 or 8 day culture, were morphologically consistent of a relative homogenous population of small cells (FIG. 19A) and megakaryocytic features such as large nuclear size and cytoplasmic mass were hardly detectable.
One of the unique characteristics of megakaryocytes is the ploidy development of their nuclei, which can be easily measured using propidium iodide (PI), a fluorescent intercalating agent that binds to nucleic acids. Megakaryocyte (Mk) ploidy correlates well with their maturation and platelet production. […] Out of 10,000 events, the control cells only elicited only 1 cell with a ploidy of 16N and nothing thereon greater (FIG. 20A).

eiNSCs = assay: In vitro expansion of episome-derived induced neural stem cells (eiNSCs); type: cell-based, human; conditions: added after the first passage in ReNcell medium
Method: For reprogramming of CD34+ cells to iNSCs by an OCT4 episomal vector, the CD34+ cells were transduced with an EBNV1-based pCEP4-OCT4 expression plasmid in which the CMV promoter is replaced by the SFFV promoter. Cells were transduced by electroporation using the Human CD34 Cell NUCLEOFECTOR® Kit (Lonza, Koln, Germany). Post-transduction, cells were incubated with hypoxia (5% 02), following the lentivirus reprogramming strategy described above. Dzep (3-deazaneplanocin, Sigma) was added to the solution after the first passage in ReNcell medium to maintain the cells for a longer period before senescence/quiescence.
While direct reprogramming using lentivirus does provide an increasingly popular approach that bypasses the iPS cell state, the issue of random integration of foreign DNA into the host's genome still remains. We attempted to generate iNSCs from CB by an integration-free method. CB CD34^+ were electroporated with an episomal vector containing a high expression OCT4 gene. […] In addition, eiNSCs are able to differentiate into neural and glial cells as neuron and astrocyte markers were observed after random differentiation. However, eiNSCs are slower in growth rate with a doubling time of approximately 36 hours where iNSCs have a doubling time of approximately 24 hours. […]

Cl.N[C@H]1C[C@@H]1c1ccccc1 (racemic) [T, (±)-trans-2-Phenylcyclopropylamine hydrochloride] was tested, and the “fold increase in CD34+CD38− cells compared to the input” value (human CB CD34+ cells; 10 μM, 5 day culture) was “approximately 60 fold”, the “fold increase in total cell counts compared to the input” value (human CB CD34+ cells; 10 μM, 5 day culture) was roughly 45 fold and the “retention/expansion of CD34+CD38− stem/progenitor cells compared to control” value (shortened to “retention/expansion … compared to control”) (human CB CD34+ cells; hydrochloride) was “retained a significant fraction of CD34+CD38− cells and expanded this population; also recorded: promotes hematopoietic precursor immunophenotype and expands CD34+CD38− population”.
For COc1cc2nc(N3CCCN(C)CC3)nc(NC3CCN(Cc4ccccc4)CC3)c2cc1OC [Bix, 2-(Hexahydro-4-methyl-1H-1,4-diazepin-1-yl)-6,7-dimethoxy-N-[1-(phenylmethyl)-4-piperidinyl]-4-quinazolinamine trihydrochloride hydrate], the “retention/expansion … compared to control” value (human CB CD34+ cells; trihydrochloride hydrate) was “retained a large portion of CD34+CD38− stem/progenitor cells; also recorded: enhances retention and expansion of CD34+CD38-population” and the toxicity [1] was “no significant toxicity”.
In the case of Cc1c[nH]c(-c2cnc(NCCNc3ccc(C#N)cn3)nc2-c2ccc(Cl)cc2Cl)n1 [CHIR99021, 6-[[2-[[4-(2,4-dichlorophenyl)-5-(5-methyl-1H-imidazol-2-yl)-2 pyrimidinyl]amino]ethyl]amino]-3-pyridinecarbonitrile], the “effect on CD34+CD38+ and CD34+CD38− populations” value (shortened to “effect”) ([2]; listed as C) was “does not have much of effect; also recorded: did not have much of effect” and the “proliferation and maturation of CD34+ cells compared to control” value ([2]; listed as C) was “rapidly proliferates bone marrow CD34 cells leading to their maturation at a significantly rapid rate compared to control; also recorded: rapidly proliferated the bone marrow CD34+ cells, leading to their maturation at a significantly rapid rate compared to control”.
For C=C[C@@]1(C)CC(=O)[C@]2(O)[C@@]3(C)[C@@H](O)CCC(C)(C)[C@@H]3[C@H](O)[C@H](OC(C)=O)[C@@]2(C)O1 [F, 7β-acetoxy-8,13-epoxy-1α,6β,9α-trihydroxylabd-14-en-11-one], the “effect” value [2] was “induce a significant proportion of CD34+CD38+ population; also recorded: induce a significant proportion of CD34+CD38+ cells; also recorded: induced a significant expansion of CD34+CD38+”.
For NC(=O)c1ccc(-c2nc(-c3ccc4c(c3)OCO4)c(-c3ccccn3)[nH]2)cc1 [SB431542, 4-[4-(1,3-benzodioxol-5-yl)-5-(2-pyridinyl)-1H-imidazol-2-yl]benzamide], the “number of large megakaryocytes / shortening of maturation compared to control” value [3] was “little or no effect”, the “ploidy development compared to control or 616452 alone” value [3] was “no significant deviation in ploidy development” and the “ploidy development compared to control or 616452 alone” value ([3]; listed as SB431452) was “no significant difference”. The “CD41 population compared to control” value [3] was “marginal decrease in the CD41 population”.
COc1cc2c(NC3CCN(C(C)C)CC3)nc(C3CCCCC3)nc2cc1OCCCN1CCCC1 [UNC, 2-Cyclohexyl-6-methoxy-N-[1-(1-methylethyl)-4-piperidinyl]-7-[3-(1-pyrrolidinyl)propoxy]-4-quinazolinamine] was tested, and the toxicity [1] was “no significant toxicity”.
In the case of Nc1nccc2c1ncn2[C@@H]1C=C(CO)[C@@H](O)[C@H]1O [Z, 5R-(4-amino-1H-imidazo[4,5-c]pyridin-1-yl)-3-(hydroxymethyl)-3-cyclopentene-1S,2R-diol], the “effect” value [2] was “best effect enhancing both CD34+CD38- and CD34+ and CD38+ positive cells; also recorded: ability to enhance both the population of single positive (CD34+CD38−) and double positive (CD34+CD38+) cells; also recorded: the most effects on the CD34+CD38− population”, the “retention/expansion … compared to control” value (human CB CD34+ cells) was “retained a large portion of CD34+CD38− stem/progenitor cells; also recorded: enhances retention and expansion of CD34+CD38-population; also recorded: promotes hematopoietic precursor immunophenotype and expands CD34+CD38− population” and the toxicity [1] was “no significant toxicity”. The “additional passages of eiNSC growth” value (eiNSCs) was “two”.
With Cc1cccc(-c2nn(C(=S)Nc3ccccc3)cc2-c2ccnc3ccccc23)n1 [compound 616454, 3-(6-Methylpyridin-2-yl)-4-(4-quinolyl)-1-phenylthiocarbamoyl-1H-pyrazole] the “number of large megakaryocytes / shortening of maturation compared to control” value [3] was “little or no effect” and the “CD41 population compared to control” value [3] was “no any significant difference from control”.
